The subject of one series is LPS-stimulated MG6 cells. The experiment in a line: Anti-inflammatory effect in LPS-stimulated MG6 cells (TNF-α / IL-6 ELISA). The class given is cell-based, mouse. To be noted: LPS-stimulated MG6 cells, ELISA; for anti-inflammatory effects / effect on expression of TNF-α: 24 h; for effect on expression of TNF-α: vs LPS-stimulated cells without treatment; for inhibition of IL-6 expression compared with MHP1 / inhibition of TNF-α expression compared with MHP1: medium harvested 24 h after stimulation. The procedure:
MG6 cells were obtained from RIKEN BRC (Tsukuba, Japan)[25],[26]. The MG6 cells were maintained in DMEM (Nakarai, Kyoto, Japan) supplemented with 10% FBS (Thermo Fisher Scientific, Waltham, MA, USA), 10 μg/ml insulin (Sigma-Aldrich, St. Louis, MO, USA) and 100 μM 2-mercaptoethanol (Sigma-Aldrich). These cells (1 × 10^5 cells) were plated in 96-well plastic culture dishes. After overnight incubation, the medium was replaced with DMEM supplemented with 4% FBS. LPS (Escherichia coli 0111: B4; Sigma-Aldrich, St. Louis, MO, USA) and MHP1 or modified MHP1 was added to the medium, which was then harvested at 24 h after stimulation. In the experiment checking the stability at 26 or 37 °C, MHP1-Ac or MHP1-AcN was incubated at 26 or 37 °C for 24 h before adding to the medium.
The concentrations of TNF-α and IL-6 were measured using commercially available ELISA kits: TNF-α, Quantikine Mouse TNF-α ELISA Kit (R&D systems); IL-6, Quantikine Mouse IL-6 ELISA Kit (R&D systems).
(In an ELISA, binding on a coated surface is turned into a signal by an enzyme label.)

A further series can be described thus: Mouse (CD-1(ICR)) serum. To be noted: 37 °C, up to 60 min.

Square brackets hold non-standard residues; d marks the D form. Peptide text beside a SMILES is read from it.

As to `CC[C@H](C)[C@H](NC(=O)[C@H](CO)NC(=O)[C@@H](NC(=O)[C@@H](CCCCN)NC(=O)[C@@H](NC(=O)[C@@H](NC(=O)[C@H](Cc1ccc(O)cc1)NC(=O)[C@@H](NC(=O)[C@H](CCSC)NC(=O)[C@@H](N)CC(C)C)C(C)C)C(C)C)C(C)C)[C@@H](C)O)C(=O)N[C@@H](CCCCN)C(=O)N[C@H](C(=O)N1CCC[C@H]1C(=O)N[C@@H](CO)C(=O)N[C@@H](CO)C(=O)N[C@@H](Cc1c[nH]cn1)C(=O)N[C@@H](CC(N)=O)C(=O)N[C@@H](CC(C)C)C(=O)N[C@@H](CCSC)C(=O)N[C@@H](CCCCN)C(=O)NCC(=O)NCC(=O)N[C@@H](CO)C(=O)N[C@H](C(=O)N[C@@H](CCCCN)C(=O)N[C@@H](CC(N)=O)C(=O)N[C@@H](Cc1c[nH]c2ccccc12)C(=O)N[C@@H](CO)C(=O)NCC(=O)N[C@@H](CC(N)=O)C(=O)O)[C@@H](C)O)[C@@H](C)CC` [MHP1-DN1] (H-LMVYVV[dK]TSIKIPSSHNLMKGGSTKNWSGN-OH), in the series on LPS-stimulated MG6 cells, the anti-inflammatory effects entry is given as “lacked anti-inflammatory effects” and the “effect on expression of TNF-α” value is “augmented the expression of TNF-α”.
In the case of `CC[C@H](C)[C@H](NC(=O)[C@H](CO)NC(=O)[C@@H](NC(=O)[C@H](CCCCN)NC(=O)[C@@H](NC(=O)[C@@H](NC(=O)[C@H](Cc1ccc(O)cc1)NC(=O)[C@@H](NC(=O)[C@H](CCSC)NC(=O)[C@@H](N)CC(C)C)C(C)C)C(C)C)C(C)C)[C@@H](C)O)C(=O)N[C@@H](CCCCN)C(=O)N[C@H](C(=O)N1CCC[C@H]1C(=O)N[C@@H](CO)C(=O)N[C@@H](CO)C(=O)N[C@@H](Cc1c[nH]cn1)C(=O)N[C@@H](CC(N)=O)C(=O)N[C@@H](CC(C)C)C(=O)N[C@@H](CCSC)C(=O)N[C@@H](CCCCN)C(=O)NCC(=O)NCC(=O)N[C@@H](CO)C(=O)N[C@H](C(=O)N[C@@H](CCCCN)C(=O)N[C@@H](CC(N)=O)C(=O)N[C@@H](Cc1c[nH]c2ccccc12)C(=O)N[C@@H](CO)C(=O)NCC(=O)N[C@@H](CC(N)=O)C(N)=O)[C@@H](C)O)[C@@H](C)CC` [MHP1-N] (H-LMVYVVKTSIKIPSSHNLMKGGSTKNWSGN-NH2), in the series on LPS-stimulated MG6 cells, the “inhibition of IL-6 expression compared with MHP1” value is reported as “not replicated” and the “inhibition of TNF-α expression compared with MHP1” value is listed as “more effective than MHP1”.
As for LMVYVVKTSIKIPSSHNLMKGGSTKNWSGN, in the series “Mouse (CD-1(ICR)) serum”, the cleaved bond result is “L-M2 and M2-V and V-Y4 and Y4-V, major and K7-T, major and Met19-K”; the fragment found result is “LMVYVVKTSIKIPSSHNLMKGGSTKNWSGN-Oxygen”.
`CC[C@H](C)[C@H](NC(=O)[C@H](CO)NC(=O)[C@@H](NC(=O)[C@H](CCCCN)NC(=O)[C@@H](NC(=O)[C@@H](NC(=O)[C@H](Cc1ccc(O)cc1)NC(=O)[C@@H](NC(=O)[C@H](CCSC)NC(=O)[C@@H](N)CC(C)C)C(C)C)C(C)C)C(C)C)[C@@H](C)O)C(=O)N[C@@H](CCCCN)C(=O)N[C@H](C(=O)N1CCC[C@H]1C(=O)N[C@@H](CO)C(=O)N[C@@H](CO)C(=O)N[C@@H](Cc1c[nH]cn1)C(=O)N[C@@H](CC(N)=O)C(=O)N[C@@H](CC(C)C)C(=O)N[C@H](CCSC)C(=O)N[C@@H](CCCCN)C(=O)NCC(=O)NCC(=O)N[C@@H](CO)C(=O)N[C@H](C(=O)N[C@@H](CCCCN)C(=O)N[C@@H](CC(N)=O)C(=O)N[C@@H](Cc1c[nH]c2ccccc12)C(=O)N[C@@H](CO)C(=O)NCC(=O)N[C@@H](CC(N)=O)C(=O)O)[C@@H](C)O)[C@@H](C)CC` [MHP1-DC] (H-LMVYVVKTSIKIPSSHNL[dM]KGGSTKNWSGN-OH): in the series on LPS-stimulated MG6 cells, the “inhibition of IL-6 expression compared with MHP1” value was “not replicated” and the “inhibition of TNF-α expression compared with MHP1” value is listed as “more effective than MHP1”.
For `CC[C@H](C)[C@H](NC(=O)[C@H](CO)NC(=O)[C@@H](NC(=O)[C@H](CCCCN)NC(=O)[C@@H](NC(=O)[C@@H](NC(=O)[C@@H](Cc1ccc(O)cc1)NC(=O)[C@@H](NC(=O)[C@H](CCSC)NC(=O)[C@@H](N)CC(C)C)C(C)C)C(C)C)C(C)C)[C@@H](C)O)C(=O)N[C@@H](CCCCN)C(=O)N[C@H](C(=O)N1CCC[C@H]1C(=O)N[C@@H](CO)C(=O)N[C@@H](CO)C(=O)N[C@@H](Cc1c[nH]cn1)C(=O)N[C@@H](CC(N)=O)C(=O)N[C@@H](CC(C)C)C(=O)N[C@@H](CCSC)C(=O)N[C@@H](CCCCN)C(=O)NCC(=O)NCC(=O)N[C@@H](CO)C(=O)N[C@H](C(=O)N[C@@H](CCCCN)C(=O)N[C@@H](CC(N)=O)C(=O)N[C@@H](Cc1c[nH]c2ccccc12)C(=O)N[C@@H](CO)C(=O)NCC(=O)N[C@@H](CC(N)=O)C(=O)O)[C@@H](C)O)[C@@H](C)CC` [MHP1-DN2] (H-LMV[dY]VVKTSIKIPSSHNLMKGGSTKNWSGN-OH), in the series on LPS-stimulated MG6 cells, the anti-inflammatory effects result is on record as “lacked anti-inflammatory effects” and the “effect on expression of TNF-α” value is “augmented the expression of TNF-α”.
Consider `CC[C@H](C)[C@H](NC(=O)[C@H](CO)NC(=O)[C@@H](NC(=O)[C@H](CCCCN)NC(=O)[C@@H](NC(=O)[C@@H](NC(=O)[C@H](Cc1ccc(O)cc1)NC(=O)[C@@H](NC(=O)[C@@H](CCSC)NC(=O)[C@@H](N)CC(C)C)C(C)C)C(C)C)C(C)C)[C@@H](C)O)C(=O)N[C@@H](CCCCN)C(=O)N[C@H](C(=O)N1CCC[C@H]1C(=O)N[C@@H](CO)C(=O)N[C@@H](CO)C(=O)N[C@@H](Cc1c[nH]cn1)C(=O)N[C@@H](CC(N)=O)C(=O)N[C@@H](CC(C)C)C(=O)N[C@@H](CCSC)C(=O)N[C@@H](CCCCN)C(=O)NCC(=O)NCC(=O)N[C@@H](CO)C(=O)N[C@H](C(=O)N[C@@H](CCCCN)C(=O)N[C@@H](CC(N)=O)C(=O)N[C@@H](Cc1c[nH]c2ccccc12)C(=O)N[C@@H](CO)C(=O)NCC(=O)N[C@@H](CC(N)=O)C(=O)O)[C@@H](C)O)[C@@H](C)CC` [MHP1-DN3] (H-L[dM]VYVVKTSIKIPSSHNLMKGGSTKNWSGN-OH), for which, in the series on LPS-stimulated MG6 cells, the anti-inflammatory effects entry was “lacked anti-inflammatory effects” and the “effect on expression of TNF-α” value is “no influence”.

Source of the values: publication PMC6290023 (Scientific Reports, 2018).
